Numbers after ± are expanded uncertainties.
Assays:
[1] = Crystal; DTA
[2] = Molar enthalpy of transition or fusion; settings: Crystal; DSC

Structure (SMILES)	Normal melting temperature [1]	Molar enthalpy of transition or fusion [2]
NC(=O)c1cnccn1 [pyrazinecarboxamide]	188.27 ± 1.1 °C	6.72 ± 0.191 kcal/mol
NNC(=O)c1ccncc1 [isonicotinic acid hydrazide]	172.69 ± 1.1 °C	6.67 ± 0.191 kcal/mol
CCCCCCCCCC[N+](C)(C)CCCCCCCCCC.O=[N+]([O-])[O-] [Didecyldimethylammonium nitrate]	31.7 ± 1.1 °C	2.33 ± 0.0789 kcal/mol
